Measured values from ChEMBL document CHEMBL1155067, “Carbonic anhydrase inhibitors: thioxolone versus sulfonamides for obtaining isozyme-selective inhibitors?” (Bioorg Med Chem Lett, 2008).

Key:
[1] = molecular target: Carbonic anhydrase 6 (Homo sapiens) (UniProt P23280)
Description: Inhibition of human recombinant carbonic anhydrase 6 by stopped flow CO2 hydration method

[2] = molecular target: Carbonic anhydrase 4 (Homo sapiens) (UniProt P22748)
Description: Inhibition of human recombinant carbonic anhydrase 4 by stopped flow CO2 hydration method

[3] = molecular target: Carbonic anhydrase 13 (Mus musculus) (UniProt Q9D6N1); experiment: Inhibition of mouse recombinant carbonic anhydrase 13 by stopped flow CO2 hydration method
Carbonic anhydrase 2 [4] = molecular target: T1, Carbonic anhydrase 2 (Homo sapiens, UniProt P00918); experiment: Inhibition of human recombinant carbonic anhydrase 2 by oxygen-18 isotope exchange assay
[5] = molecular target: Carbonic anhydrase 5A, mitochondrial (Homo sapiens) (UniProt P35218)
Description: Inhibition of human recombinant carbonic anhydrase 5A by stopped flow CO2 hydration method

[6] = molecular target: Carbonic anhydrase 12 (Homo sapiens) (UniProt O43570)
Description: Inhibition of human recombinant carbonic anhydrase 12 catalytic domain by stopped flow CO2 hydration method

[7] = molecular target: Carbonic anhydrase 14 (Homo sapiens) (UniProt Q9ULX7)
Description: Inhibition of human recombinant carbonic anhydrase 14 by stopped flow CO2 hydration method

[8] = molecular target: Carbonic anhydrase 1 (Homo sapiens) (UniProt P00915)
[9] = molecular target: Carbonic anhydrase 3 (Homo sapiens) (UniProt P07451)
Description: Inhibition of human recombinant carbonic anhydrase 3 by stopped flow CO2 hydration method

Carbonic anhydrase 2 [10] = molecular target: T1, Carbonic anhydrase 2
[11] = molecular target: Carbonic anhydrase 7 (Homo sapiens) (UniProt P43166)
[12] = molecular target: T2, Carbonic anhydrase 15 (Mus musculus) (UniProt Q99N23); experiment: Inhibition of mouse recombinant carbonic anhydrase 15 by stopped flow CO2 hydration method
T2 sequence (whole entry): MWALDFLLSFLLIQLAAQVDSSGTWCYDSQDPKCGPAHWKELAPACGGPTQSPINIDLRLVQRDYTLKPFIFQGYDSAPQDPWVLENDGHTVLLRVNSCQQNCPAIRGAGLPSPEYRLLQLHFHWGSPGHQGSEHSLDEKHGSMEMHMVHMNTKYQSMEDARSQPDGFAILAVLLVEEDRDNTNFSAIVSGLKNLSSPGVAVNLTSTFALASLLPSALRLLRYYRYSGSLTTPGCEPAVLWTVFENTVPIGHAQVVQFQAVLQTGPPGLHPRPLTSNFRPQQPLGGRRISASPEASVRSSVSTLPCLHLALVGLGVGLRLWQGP

Carbonic anhydrase 2 [13] = molecular target: T1, Carbonic anhydrase 2; experiment: Inhibition of human recombinant carbonic anhydrase 2 assessed as activity of carbonic anhydrase 2 esterase activity against 4-nitrophenyl acetate
[14] = molecular target: Carbonic anhydrase 9 (Homo sapiens) (UniProt Q16790)
Description: Inhibition of human recombinant carbonic anhydrase 9 catalytic domain by stopped flow CO2 hydration method

[15] = molecular target: Carbonic anhydrase 5B, mitochondrial (Homo sapiens) (UniProt Q9Y2D0)
Chain of Carbonic anhydrase 5B, mitochondrial (Homo sapiens) (Q9Y2D0 whole entry): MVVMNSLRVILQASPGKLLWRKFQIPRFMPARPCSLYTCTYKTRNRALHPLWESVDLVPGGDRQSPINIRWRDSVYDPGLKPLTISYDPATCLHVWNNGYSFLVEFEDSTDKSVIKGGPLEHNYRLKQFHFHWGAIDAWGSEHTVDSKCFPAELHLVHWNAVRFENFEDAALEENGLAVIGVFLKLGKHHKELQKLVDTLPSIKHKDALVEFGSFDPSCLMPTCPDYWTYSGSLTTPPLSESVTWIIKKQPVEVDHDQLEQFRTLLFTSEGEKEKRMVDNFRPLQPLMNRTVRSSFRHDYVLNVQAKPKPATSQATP
Description: Inhibition of human recombinant carbonic anhydrase 5B by stopped flow CO2 hydration method

Chain of Carbonic anhydrase 13 (Mus musculus) (Q9D6N1 whole entry, looked up): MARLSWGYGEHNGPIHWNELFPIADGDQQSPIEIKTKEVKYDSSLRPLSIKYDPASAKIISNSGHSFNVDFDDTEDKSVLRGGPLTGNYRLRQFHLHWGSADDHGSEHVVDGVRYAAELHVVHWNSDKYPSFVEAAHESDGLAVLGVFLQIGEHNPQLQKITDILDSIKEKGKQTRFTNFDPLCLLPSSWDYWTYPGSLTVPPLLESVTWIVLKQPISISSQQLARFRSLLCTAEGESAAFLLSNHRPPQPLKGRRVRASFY
Chain of Carbonic anhydrase 3 (Homo sapiens) (P07451 whole entry): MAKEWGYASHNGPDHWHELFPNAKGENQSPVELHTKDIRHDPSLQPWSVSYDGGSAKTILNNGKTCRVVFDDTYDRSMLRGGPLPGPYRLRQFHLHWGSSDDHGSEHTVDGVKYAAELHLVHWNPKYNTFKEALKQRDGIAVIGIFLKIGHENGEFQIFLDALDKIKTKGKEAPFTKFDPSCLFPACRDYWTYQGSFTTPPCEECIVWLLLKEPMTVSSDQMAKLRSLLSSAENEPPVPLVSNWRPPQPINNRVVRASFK
Chain of Carbonic anhydrase 5A, mitochondrial (Homo sapiens) (P35218 whole entry): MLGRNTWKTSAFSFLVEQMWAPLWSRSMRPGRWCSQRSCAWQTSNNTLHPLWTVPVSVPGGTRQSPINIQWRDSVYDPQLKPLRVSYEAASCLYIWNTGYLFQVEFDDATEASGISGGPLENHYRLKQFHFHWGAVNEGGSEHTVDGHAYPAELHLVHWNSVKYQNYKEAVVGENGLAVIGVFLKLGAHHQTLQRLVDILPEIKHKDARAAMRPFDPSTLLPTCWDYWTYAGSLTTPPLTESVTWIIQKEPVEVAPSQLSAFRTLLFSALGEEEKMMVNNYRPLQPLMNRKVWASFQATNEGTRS
Chain of Carbonic anhydrase 7 (Homo sapiens) (P43166 whole entry): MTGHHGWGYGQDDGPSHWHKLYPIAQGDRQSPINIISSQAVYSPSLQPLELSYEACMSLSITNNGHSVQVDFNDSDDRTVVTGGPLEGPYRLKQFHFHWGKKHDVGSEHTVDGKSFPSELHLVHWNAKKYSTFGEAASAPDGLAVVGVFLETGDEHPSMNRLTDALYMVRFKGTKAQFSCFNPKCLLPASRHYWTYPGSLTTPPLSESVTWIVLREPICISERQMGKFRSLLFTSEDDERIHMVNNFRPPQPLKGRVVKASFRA
Chain of Carbonic anhydrase 12 (Homo sapiens) (O43570 whole entry): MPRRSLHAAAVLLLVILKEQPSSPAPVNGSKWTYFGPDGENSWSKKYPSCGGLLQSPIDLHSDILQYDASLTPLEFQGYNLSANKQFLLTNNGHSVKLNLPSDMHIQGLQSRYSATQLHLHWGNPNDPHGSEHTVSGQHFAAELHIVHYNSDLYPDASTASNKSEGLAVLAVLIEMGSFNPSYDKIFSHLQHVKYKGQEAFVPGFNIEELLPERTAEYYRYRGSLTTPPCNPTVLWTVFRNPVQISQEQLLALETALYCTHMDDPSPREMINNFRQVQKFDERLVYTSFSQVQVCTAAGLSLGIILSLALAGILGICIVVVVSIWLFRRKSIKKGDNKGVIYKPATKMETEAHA
Chain of Carbonic anhydrase 1 (Homo sapiens) (P00915 2-261 limits assumed): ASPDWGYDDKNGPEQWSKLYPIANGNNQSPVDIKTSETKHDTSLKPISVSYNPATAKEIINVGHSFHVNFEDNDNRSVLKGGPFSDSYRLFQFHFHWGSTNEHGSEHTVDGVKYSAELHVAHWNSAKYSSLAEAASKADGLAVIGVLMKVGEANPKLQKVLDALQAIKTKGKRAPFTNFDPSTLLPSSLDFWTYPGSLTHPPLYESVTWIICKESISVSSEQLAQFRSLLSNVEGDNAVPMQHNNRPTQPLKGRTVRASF
Chain of Carbonic anhydrase 14 (Homo sapiens) (Q9ULX7 whole entry): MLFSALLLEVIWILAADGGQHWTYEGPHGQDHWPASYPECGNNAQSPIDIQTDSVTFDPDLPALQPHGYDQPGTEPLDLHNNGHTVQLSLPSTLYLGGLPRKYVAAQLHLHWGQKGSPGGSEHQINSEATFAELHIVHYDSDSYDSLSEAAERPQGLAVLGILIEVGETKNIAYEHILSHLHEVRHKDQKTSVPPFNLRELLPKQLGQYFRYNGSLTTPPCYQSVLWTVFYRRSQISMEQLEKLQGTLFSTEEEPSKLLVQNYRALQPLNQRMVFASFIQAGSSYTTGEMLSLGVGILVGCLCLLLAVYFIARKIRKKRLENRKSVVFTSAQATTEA
Chain of Carbonic anhydrase 4 (Homo sapiens) (P22748 whole entry): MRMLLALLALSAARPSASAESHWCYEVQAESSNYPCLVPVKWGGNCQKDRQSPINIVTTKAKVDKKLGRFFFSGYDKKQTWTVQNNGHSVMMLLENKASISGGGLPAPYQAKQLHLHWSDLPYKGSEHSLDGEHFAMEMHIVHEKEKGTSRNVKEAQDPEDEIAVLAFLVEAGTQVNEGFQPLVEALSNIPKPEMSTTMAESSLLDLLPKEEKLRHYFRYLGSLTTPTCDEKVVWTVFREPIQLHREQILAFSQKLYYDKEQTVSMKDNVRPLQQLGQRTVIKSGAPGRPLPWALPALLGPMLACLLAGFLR
Chain of Carbonic anhydrase 6 (Homo sapiens) (P23280 whole entry): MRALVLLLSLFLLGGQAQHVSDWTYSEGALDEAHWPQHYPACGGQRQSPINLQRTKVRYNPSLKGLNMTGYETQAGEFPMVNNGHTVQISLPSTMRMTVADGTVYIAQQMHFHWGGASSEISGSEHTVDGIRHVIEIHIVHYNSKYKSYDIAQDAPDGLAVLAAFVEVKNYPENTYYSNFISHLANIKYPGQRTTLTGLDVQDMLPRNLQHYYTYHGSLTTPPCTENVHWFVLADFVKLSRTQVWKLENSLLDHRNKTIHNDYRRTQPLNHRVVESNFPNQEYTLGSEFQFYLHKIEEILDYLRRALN

`O=c1oc2cc(O)ccc2s1` [TIOXOLONE] was tested, and the Kinact [1] was 4.93 µM, the Kinact [2] was 8.41 µM and the Kinact [3] was 8.23 µM. For the same compound, the Kinact (Carbonic anhydrase 2 [4]) was 314 µM, the Ki [5] was 7060 nM and the Kinact [6] was 7.79 µM. The Kinact [7] was 8.59 µM, the Kinact [8] was 0.091 µM and the Kinact [9] was 6.56 µM. It also gave a Kinact (Carbonic anhydrase 2 [10]) of 6.82 µM, a Kinact [11] of 5.73 µM and a Ki [12] of 7870 nM. For the same compound, the IC50 (Carbonic anhydrase 2 [13]) was 1770 nM, the Kinact [14] was 6.67 µM and the Kinact [15] was 9.04 µM.
`NS(=O)(=O)c1cc(Cl)c(O)c(Cl)c1` was tested, and the Kinact [1] was 6.17 µM, the Kinact [2] was 0.072 µM and the Kinact [3] was 6.53 µM. It also gave a Ki [5] of 620 nM, a Kinact [6] of 0.076 µM and a Kinact [7] of 8.12 µM. The Kinact [8] was 7.5 µM, the Kinact [9] was 78.6 µM and the Kinact (Carbonic anhydrase 2 [10]) was 0.058 µM. It also gave a Kinact [11] of 0.072 µM, a Ki [12] of 780 nM and a Kinact [14] of 0.081 µM. The Kinact [15] was 0.61 µM.
